The series in a line: Method for measuring solubility of metal salt. To be noted: 100 g water at pH 7, 20° C., shaken 1 hour. How it is done:
In a flask are placed 100 g of water at pH 7 and 2 g of a metal salt being tested. The flask is tightly closed and shaken in a thermostat at 20° C. for 1 hour. The contents of the flask are filtered to collect the undissolved metal salt, which is dried and weighed. The weight (g) of the undissolved metal salt is subtracted from the original weight (2 g) to obtain the solubility of the metal salt.

For `[O]=[Mg]` [Magnesium oxide], the Solubility was determined as 0.0086 g/100 g water.
